Patent publication US20240327382A1 (ALMAC DISCOVERY LIMITED, priority 2021, published 2024)

Target: T1, Full-length USP19 (Homo sapiens, UniProt O94966)
T1 construct: Full-length USP19 was purchased from Boston Biochem (E-576); purchased Boston Biochem E-576
T1 sequence (O94966 1-1318): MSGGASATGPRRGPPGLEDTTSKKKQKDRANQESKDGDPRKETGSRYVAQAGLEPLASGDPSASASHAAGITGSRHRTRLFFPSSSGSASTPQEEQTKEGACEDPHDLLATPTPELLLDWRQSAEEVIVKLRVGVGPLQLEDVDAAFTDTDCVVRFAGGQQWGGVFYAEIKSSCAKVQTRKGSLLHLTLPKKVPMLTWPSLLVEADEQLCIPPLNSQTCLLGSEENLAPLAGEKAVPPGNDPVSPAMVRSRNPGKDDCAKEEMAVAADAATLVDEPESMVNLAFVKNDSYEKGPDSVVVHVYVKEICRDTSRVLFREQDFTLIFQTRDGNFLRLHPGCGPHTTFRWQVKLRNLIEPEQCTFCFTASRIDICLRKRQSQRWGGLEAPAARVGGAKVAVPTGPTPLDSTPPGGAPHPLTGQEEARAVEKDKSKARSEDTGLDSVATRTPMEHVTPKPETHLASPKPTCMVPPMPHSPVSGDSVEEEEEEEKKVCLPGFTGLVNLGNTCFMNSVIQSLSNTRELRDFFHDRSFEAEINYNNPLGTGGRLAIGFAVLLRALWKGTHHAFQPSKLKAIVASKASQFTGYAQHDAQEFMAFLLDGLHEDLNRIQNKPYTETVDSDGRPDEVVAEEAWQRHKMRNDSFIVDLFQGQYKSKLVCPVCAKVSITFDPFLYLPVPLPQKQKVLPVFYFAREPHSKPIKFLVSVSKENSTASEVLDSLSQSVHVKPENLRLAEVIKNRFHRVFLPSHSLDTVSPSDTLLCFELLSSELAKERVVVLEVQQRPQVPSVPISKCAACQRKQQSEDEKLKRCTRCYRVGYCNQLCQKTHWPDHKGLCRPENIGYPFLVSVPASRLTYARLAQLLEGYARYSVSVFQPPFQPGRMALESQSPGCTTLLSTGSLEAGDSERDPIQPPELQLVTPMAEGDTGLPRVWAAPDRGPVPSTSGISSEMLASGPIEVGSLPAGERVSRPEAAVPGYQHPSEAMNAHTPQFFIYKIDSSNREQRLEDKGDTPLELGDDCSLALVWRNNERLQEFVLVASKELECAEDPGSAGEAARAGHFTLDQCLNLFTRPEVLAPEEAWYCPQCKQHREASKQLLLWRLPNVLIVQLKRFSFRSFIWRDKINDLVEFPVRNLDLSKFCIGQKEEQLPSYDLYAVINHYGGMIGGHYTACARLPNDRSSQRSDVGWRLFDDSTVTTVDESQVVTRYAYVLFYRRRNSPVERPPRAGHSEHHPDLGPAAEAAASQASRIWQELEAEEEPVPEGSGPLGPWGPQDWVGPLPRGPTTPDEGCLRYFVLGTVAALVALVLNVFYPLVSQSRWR
Test: USP19 fluorescence polarisation (FP) assay, Ubiquitin-Lys-TAMRA substrate
Format: biochemical
Conditions: average of at least two duplicate experiments
Protocol: USP19 activity was determined in a fluorescence polarisation (FP) homogeneous assay using the isopeptide Ubiquitin-Lys-TAMRA substrate (either AUB-101, Almac Sciences Scotland Limited, or U-558, Boston Biochem, both of which gave identical results). Full-length USP19 was purchased from Boston Biochem (E-576). Unless otherwise stated, all other reagents were purchased from Sigma. Enzymatic reactions were conducted in black flat bottom polystyrene 384-well plates (Nunc) and 30 μL total volume. USP19 (2.5 nM, 10 μL) was incubated in assay buffer (50 mM HEPES (pH 7.4), 150 mM NaCl, 5 mM DTT, 0.05% BSA (w/v), 0.05% CHAPS) in the presence or absence of inhibitor (10 μL). Inhibitors were stored as 10 mM DMSO stocks in an inert environment (low humidity, dark, low oxygen, rt) using the StoragePod® system (Roylan Developments) and serial dilutions were prepared in buffer just prior to the assay (from 200 μM to 2 μM, 8-18 data point curve). Following incubation at RT for 30 min, the enzymatic reactions were initiated by dispensing the Ub substrate (500 nM, 10 μL). FP was measured every 15 min over a period of 90 min (within the linear range of the assay) using a Synergy 4 plate reader (BioTek) exciting at 530 nm and measuring the amount of parallel and perpendicular light at 575 nm. The FP signal was subsequently normalised to the no compound control. Data were plotted and fitted, and the concentrations resulting in 50% inhibition (IC50) were calculated using the non-linear regression curve fitting model using GraphPad (Prism). IC50 values for the inhibitors of the invention are compiled in Tables 1 and 3 and represent the average of at least two duplicate experiments.

Row | IC50 [nM] | SMILES
1 | 10 to 100 | O=C(N1CC[C@@H](Cn2ccc(-c3ccccc3)cc2=O)C2(CCCC2)C1)N1CC[C@@H](O)C[C@H]1c1ccccc1 [Example 44, 1-(((R)-7-((2S,4R)-4-Hydroxy-2-phenylpiperidine-1-carbonyl)-7-azaspiro[4.5]decan-10-yl)methyl)-4-phenylpyridin-2(1H)-one]
2 | < 10 | CCN[C@@H]1CCN(C(=O)N2CC[C@@H](Cn3ccc(-c4ccccc4)cc3=O)C3(CCCC3)C2)[C@H](c2ccccc2)C1 [Example 45, 1-(((R)-7-((2S,4R)-4-(Ethylamino)-2-phenylpiperidine-1-carbonyl)-7-azaspiro[4.5]decan-10-yl)methyl)-4-phenylpyridin-2(1H)-one]
3 | 10 to 100 | CN(C)[C@@H]1CCN(C(=O)N2CC[C@@H](Cn3ccc(-c4ccccc4)cc3=O)C3(CCCC3)C2)[C@H](c2ccccc2)C1 [Example 46, 1-(((R)-7-((2S,4R)-4-(Dimethylamino)-2-phenylpiperidine-1-carbonyl)-7-azaspiro[4.5]decan-10-yl)methyl)-4-phenylpyridin-2(1H)-one]
4 | < 10 | CN[C@@H]1CCN(C(=O)N2CCC(Cn3ccc(-c4ccccc4)cc3=O)CC2)[C@H](c2ccccc2)C1 [Example 47, 1-((1-((2S,4R)-4-(Methylamino)-2-phenylpiperidine-1-carbonyl)piperidin-4-yl)methyl)-4-phenylpyridin-2(1H)-one]
5 | < 10 | CN[C@@H]1CCN(C(=O)N2CC[C@@H](Cn3ccc(-c4ccccc4)cc3=O)C3(CCCC3)C2)[C@H](c2ccccc2)C1 [Example 48, 1-(((R)-7-((2S,4R)-4-(Methylamino)-2-phenylpiperidine-1-carbonyl)-7-azaspiro[4.5]decan-10-yl)methyl)-4-phenylpyridin-2(1H)-one]
6 | 100 to 1000 | C[C@H](CC(F)(F)F)C(=O)N1CCC(N)(Cn2cnc(-c3ccccc3)cc2=O)C2(CCCC2)C1 (stereo partly drawn) [Example 49, 3-((10-Amino-7-((R)-4,4,4-trifluoro-2-methylbutanoyl)-7-azaspiro[4.5]decan-10-yl)methyl)-6-phenylpyrimidin-4(3H)-one]
7 | 10 to 100 | O=C(N1CC[C@@H](Cn2ccc(-c3ccccc3)cc2=O)C2(CCCC2)C1)N1CC[C@@H](NC2CS(=O)(=O)C2)C[C@H]1c1ccccc1 [Example 50, 1-(((R)-7-((2S,4R)-4-((1,1-Dioxidothietan-3-yl)amino)-2-phenylpiperidine-1-carbonyl)-7-azaspiro[4.5]decan-10-yl)methyl)-4-phenylpyridin-2(1H)-one]
8 | 100 to 1000 | O=C(N1CC[C@@H](Cn2ccc(-c3ccccc3)cc2=O)C2(CCCC2)C1)N1CC[C@H](NC2CS(=O)(=O)C2)C[C@H]1c1ccccc1 [Example 51, 1-(((R)-7-((2S,4S)-4-((1,1-Dioxidothietan-3-yl)amino)-2-phenylpiperidine-1-carbonyl)-7-azaspiro[4.5]decan-10-yl)methyl)-4-phenylpyridin-2(1H)-one]
9 | 100 to 1000 | C[C@@]1(O)CCN(C(=O)N2CC[C@@H](Cn3ccc(-c4ccccc4)cc3=O)C3(CCCC3)C2)[C@H](c2ccccc2)C1 [Example 52, 1-(((R)-7-((2S,4R)-4-Hydroxy-4-methyl-2-phenylpiperidine-1-carbonyl)-7-azaspiro[4.5]decan-10-yl)methyl)-4-phenylpyridin-2(1H)-one]
10 | < 10 | CN[C@@H]1CCN(C(=O)N2CC[C@@H](Cn3ccc(-c4ccccc4OC)cc3=O)C3(CCCC3)C2)[C@H](c2ccccc2)C1 [Example 53, 4-(2-Methoxyphenyl)-1-(((R)-7-((2S,4R)-4-(methylamino)-2-phenylpiperidine-1-carbonyl)-7-azaspiro[4.5]decan-10-yl)methyl)pyridin-2(1H)-one]
11 | < 10 | CN[C@@H]1CCN(C(=O)N2CC[C@@H](Cn3ccc(-c4ccccc4C)cc3=O)C3(CCCC3)C2)[C@H](c2ccccc2)C1 [Example 54, 1-(((R)-7-((2S,4R)-4-(Methylamino)-2-phenylpiperidine-1-carbonyl)-7-azaspiro[4.5]decan-10-yl)methyl)-4-(o-tolyl)pyridin-2(1H)-one]
12 | < 10 | CN[C@@H]1CCN(C(=O)N2CC[C@@H](Cn3ccc(-c4ccccc4F)cc3=O)C3(CCCC3)C2)[C@H](c2ccccc2)C1 [Example 55, 4-(2-Fluorophenyl)-1-(((R)-7-((2S,4R)-4-(methylamino)-2-phenylpiperidine-1-carbonyl)-7-azaspiro[4.5]decan-10-yl)methyl)pyridin-2(1H)-one]
13 | < 10 | CN[C@@H]1CCN(C(=O)N2CC[C@@H](Cn3cnc(-c4ccccc4)cc3=O)C3(CCCC3)C2)[C@H](c2ccccc2)C1 [Example 56, 3-(((R)-7-((2S,4R)-4-(Methylamino)-2-phenylpiperidine-1-carbonyl)-7-azaspiro[4.5]decan-10-yl)methyl)-6-phenylpyrimidin-4(3H)-one]
14 | < 10 | N[C@@H]1CCN(C(=O)N2CCC(F)(Cn3cnc(-c4ccccc4)cc3=O)C3(CCCC3)C2)[C@H](c2ccccc2)C1 (stereo partly drawn) [Example 57, 3-((7-((2S,4R)-4-Amino-2-phenylpiperidine-1-carbonyl)-10-fluoro-7-azaspiro[4.5]decan-10-yl)methyl)-6-phenylpyrimidin-4(3H)-one]
15 | < 10 | CN[C@@H]1CCN(C(=O)N2CC[C@](Cn3ccc(-c4ccccc4)cc3=O)(OC)C3(CCCC3)C2)[C@H](c2ccccc2)C1 [Example 58, 1-(((S)-10-Methoxy-7-((2S,4R)-4-(methylamino)-2-phenylpiperidine-1-carbonyl)-7-azaspiro[4.5]decan-10-yl)methyl)-4-phenylpyridin-2(1H)-one]
16 | < 10 | COc1ccccc1-c1ccn(C[C@@H]2CCN(C(=O)N3CC[C@@H](N)C[C@H]3c3ccccc3)CC23CCCC3)c(=O)c1 [Example 59, 1-(((R)-7-((2S,4R)-4-Amino-2-phenylpiperidine-1-carbonyl)-7-azaspiro[4.5]decan-10-yl)methyl)-4-(2-methoxyphenyl)pyridin-2(1H)-one]
17 | < 10 | Cc1ccccc1-c1ccn(C[C@@H]2CCN(C(=O)N3CC[C@@H](N)C[C@H]3c3ccccc3)CC23CCCC3)c(=O)c1 [Example 60, 1-(((R)-7-((2S,4R)-4-Amino-2-phenylpiperidine-1-carbonyl)-7-azaspiro[4.5]decan-10-yl)methyl)-4-(o-tolyl)pyridin-2(1H)-one]
18 | < 10 | N[C@@H]1CCN(C(=O)N2CC[C@@H](Cn3ccc(-c4ccccc4F)cc3=O)C3(CCCC3)C2)[C@H](c2ccccc2)C1 [Example 61, 1-(((R)-7-((2S,4R)-4-Amino-2-phenylpiperidine-1-carbonyl)-7-azaspiro[4.5]decan-10-yl)methyl)-4-(2-fluorophenyl)pyridin-2(1H)-one]
19 | < 10 | CCN[C@@H]1CCN(C(=O)N2CC[C@@H](Cn3cnc(-c4ccccc4)cc3=O)C3(CCCC3)C2)[C@H](c2ccccc2)C1 [Example 62, 3-(((R)-7-((2S,4R)-4-(Ethylamino)-2-phenylpiperidine-1-carbonyl)-7-azaspiro[4.5]decan-10-yl)methyl)-6-phenylpyrimidin-4(3H)-one]
